ChEMBL document CHEMBL3507680, “University of Dundee, Gates Library screen for HepG2 cell viability”

Test: Human HepG2 cell viability assay in 384 well format
Format: toxicity, cell-based
Set-up: dose 125 nL, time 70.5 hour; cytotoxicity at 70.5 h: concentration not given beside the values
Details: HepG2 cells, read-out: Inhibition

C1CN(CCN2CCOCC2)CCN1
cytotoxicity at 70.5 h: -0.136%

O=C1CO[C@H]2CN(C3CCOCC3)C[C@H]2N1Cc1ccncc1
cytotoxicity at 70.5 h: 0.0501%

CNC(=O)C(C)(C)N1CCC[C@H]1C(=O)NCCN1CCOCC1
cytotoxicity at 70.5 h: -6.76%

O=C1C[C@@H]2CCN(Cc3ccccc3)C[C@@H]2CCN1C1CCCCC1
cytotoxicity at 70.5 h: 6.87%

COCCOc1ccc(-c2noc([C@@H]3CCCN3C3CCC3)n2)cn1
cytotoxicity at 70.5 h: -3.43%

COCCOc1ccnc(-c2noc([C@@H]3CCCN3CC3CC3)n2)c1
cytotoxicity at 70.5 h: -9.26%

COCCOc1ccnc(-c2noc([C@@H]3CCCN3C3CCC3)n2)c1
cytotoxicity at 70.5 h: -5.26%

CC(C)C[C@@H]1N[C@H](C(=O)NC(C)C)Cc2c[nH]c3cccc1c23
cytotoxicity at 70.5 h: -1.24%

CCN(CC)C1(Cc2cc(-c3cccc(O)c3)on2)COC1
cytotoxicity at 70.5 h: -8.06%

N#Cc1ccc(CN2C[C@@H]3OCC(=O)N(CC(N)=O)[C@@H]3C2)cc1
cytotoxicity at 70.5 h: -3.35%

CC(C)(C)c1coc([C@@H]2COCCN2Cc2csnn2)n1
cytotoxicity at 70.5 h: -1.66%

COCC(=O)N[C@H]1C[C@@H](Cc2cc(CN3CCOCC3)on2)C1(C)C
cytotoxicity at 70.5 h: 11.2%

CC[C@H]1CN(S(C)(=O)=O)CC[C@H]1CC(=O)NCCOC
cytotoxicity at 70.5 h: 9.53%

Cn1ccnc1CN1C(=O)CO[C@H]2CN(Cc3ccccc3O)C[C@H]21
cytotoxicity at 70.5 h: -1.59%

CC(=O)N1CCC(N2CCOC[C@H]2c2nc(-c3ccc(Cl)s3)c[nH]2)CC1
cytotoxicity at 70.5 h: -2.53%

COCCN1C[C@H]2CN(C(=O)C3CC3)CCN2C1=O
cytotoxicity at 70.5 h: 3.48%

Cn1cc(CN2CCOC[C@H]2c2nc(C(C)(C)C)co2)c2ccccc21
cytotoxicity at 70.5 h: -2.71%

Cc1nn(CCC#N)c(C)c1[C@@H]1C=C[C@@H](NCc2cccc(Cl)c2)C1
cytotoxicity at 70.5 h: -4.45%

O=C(N[C@@H]1CNCCC[C@H]1O)c1ccc(OCc2ccccc2)cc1
cytotoxicity at 70.5 h: -2.25%

COc1ccc(-c2noc([C@@H]3C[C@H](NC(=O)NC(C)C)CN3C)n2)cc1
cytotoxicity at 70.5 h: -0.383%

CCS(=O)(=O)c1ccc2oc([C@H]3CCN(Cc4ccccc4)C3)nc2c1
cytotoxicity at 70.5 h: 2.59%

O=C(C1CC1)N1CC[C@H](c2nnc(Cc3c[nH]c4ccccc34)o2)C1
cytotoxicity at 70.5 h: -1.09%

CC(=O)N1CCC(N2CCN3C(=O)N(c4ccccc4)C[C@H]3C2)CC1
cytotoxicity at 70.5 h: 3.66%

c1ccc(O[C@H]2COCCN(CC3CC3)C2)cc1
cytotoxicity at 70.5 h: -1.48%

O=C(NC[C@H]1OC[C@@H](NCc2ccccc2F)[C@@H]1O)c1ccc(F)cc1
cytotoxicity at 70.5 h: -3.67%

O[C@H]1CC[C@@H](Cc2cc(-c3ccccc3)on2)O[C@@H]1CNCC1CC1
cytotoxicity at 70.5 h: -5.25%

Cc1ccc(CNC[C@H]2Cn3cc(-c4ccccc4)nc3CO2)cc1
cytotoxicity at 70.5 h: -4.13%

Cc1cccnc1CNC[C@H]1Cn2cc(-c3ccccc3)nc2CO1
cytotoxicity at 70.5 h: -6.83%

COc1cccc(-c2n[nH]c3c2CN(C(=O)c2cccc(=O)[nH]2)CC3)c1
cytotoxicity at 70.5 h: -6.52%

CCN(CC1CCCN(CCc2cccc(OC)c2)C1)C(=O)CO (stereo not given)
cytotoxicity at 70.5 h: -0.648%

CN1CCN(C[C@@H]2CN(C(=O)NCC3CCCCC3)C[C@@H]2CO)CC1
cytotoxicity at 70.5 h: 27.6%

CCC1(C(=O)O)CCCN(C(=O)c2ccc(N3CCN(C)CC3)cc2)C1 (stereo not given)
cytotoxicity at 70.5 h: 21.4%

CCCc1cc(C(=O)N2C[C@H]3CCC[C@@]3(CO)C2)[nH]n1
cytotoxicity at 70.5 h: -7.84%

CC(C)Cc1cc(-c2cc(-c3ccc[nH]3)nc(N)c2C#N)n[nH]1
cytotoxicity at 70.5 h: 21.1%

CCCSCC(=O)N1C[C@@H](NC(C)=O)[C@H](c2ccc(OC)cc2)C1
cytotoxicity at 70.5 h: -19.4%

O[C@H]1[C@H](n2cc(-c3cncnc3)nn2)c2ccccc2C12CCNCC2
cytotoxicity at 70.5 h: -5.02%

CC(C)=CCN1C[C@H]2CC[C@@H]1CN(CCC(=O)NCc1ccco1)C2
cytotoxicity at 70.5 h: 30.2%

c1ccc(C2CCCN2C2CSCCSC2)nc1 (stereo not given)
cytotoxicity at 70.5 h: -4.87%

CCC(CO)N(Cc1ccco1)C(=O)c1cccnc1NC (stereo not given)
cytotoxicity at 70.5 h: -2.71%

CCSCCC(=O)NCc1cc2n(n1)CCN(C(=O)N(C)C)C2
cytotoxicity at 70.5 h: -6.68%

CC(=O)c1ccc(N2CCC(CO)(CCOc3ccccc3)CC2)nc1
cytotoxicity at 70.5 h: -11%

Cc1nccnc1N1CC[C@@H](NC(=O)c2cnccn2)[C@H](O)C1
cytotoxicity at 70.5 h: -8.55%

COc1ccc(OCc2nc(C(=O)N3CC[C@H](O)[C@@H](O)C3)co2)cc1
cytotoxicity at 70.5 h: -8.88%

Cc1nc(N2CC[C@@H](NC(=O)c3cnccn3)[C@H](O)C2)c2ccsc2n1
cytotoxicity at 70.5 h: -3.33%

COC(=O)CCC(=O)N1CCc2[nH]nc(-c3ccc(F)c(F)c3)c2C1
cytotoxicity at 70.5 h: -8.06%

COCCn1ccnc1C1CCCN(C(=O)CSCC2CC2)C1 (stereo not given)
cytotoxicity at 70.5 h: -3.02%

Cc1ccc([C@@H]2CN(S(=O)(=O)c3cccs3)C[C@H]2N(C)C)cc1
cytotoxicity at 70.5 h: -2.64%

CN1CCN(C[C@@H]2CN(C(=O)c3ccccc3C#N)C[C@@H]2CO)CC1
cytotoxicity at 70.5 h: 13.9%

CC(C)C(=O)NCC(=O)N(C)C1CCCN(CCc2ccccc2)C1 (stereo not given)
cytotoxicity at 70.5 h: -5.89%

CC(=O)c1cc(CN2C[C@H]3CC[C@@H]2CN(S(=O)(=O)N(C)C)C3)cs1
cytotoxicity at 70.5 h: 12.5%

Cc1cc(CN2CCN(C(=O)C(C)C)[C@@H]3CS(=O)(=O)C[C@@H]32)ccc1F
cytotoxicity at 70.5 h: -2.32%

Cc1cc(CC(=O)N2CCCC2c2nc(C(C)C)no2)on1 (stereo not given)
cytotoxicity at 70.5 h: 5.26%

CCOCC(=O)N1C[C@@H](NC(C)=O)[C@H](c2ccc(OC)cc2)C1
cytotoxicity at 70.5 h: -8.31%

CCC(O)CNC(=O)c1coc(COc2ccc3sc(C)nc3c2)n1 (stereo not given)
cytotoxicity at 70.5 h: 12.2%

Cc1cc(N(C)Cc2cc(C)on2)n2nc(C)c(C)c2n1
cytotoxicity at 70.5 h: -5.61%

O=C(CCN1CCCC1=O)NCc1cccnc1Oc1ccccc1
cytotoxicity at 70.5 h: -3.36%

Cc1nsc(NC(=O)N2CCN(Cc3ccc(F)cc3)C(=O)C2)n1
cytotoxicity at 70.5 h: -13.5%

COCCNc1nc(C2CCCC2)nc2c1CCNCC2
cytotoxicity at 70.5 h: 2.05%

CC(C)C(=O)NCCNc1nccc(-c2cc(C(=O)O)ccn2)n1
cytotoxicity at 70.5 h: -0.446%

CCNC(=O)N1CCN(Cc2nc3ccccc3[nH]2)[C@@H]2CS(=O)(=O)C[C@@H]21
cytotoxicity at 70.5 h: -9.34%

N#Cc1c(SCCN2CCCCC2)sc2c(O)cc(O)nc12
cytotoxicity at 70.5 h: 17.9%

CCc1nc(-c2cccc(C(=O)O)c2)no1
cytotoxicity at 70.5 h: 16.3%

CSCCC(NC(=O)c1nc(SC)ncc1Cl)C(=O)O (stereo not given)
cytotoxicity at 70.5 h: -0.19%

Cc1cc(C)n(C(=O)Cn2nc(C)c(I)c2C)n1
cytotoxicity at 70.5 h: -7.22%

CC1=C(C#N)C(=O)NC(=O)/C1=C\c1c(C)nn(-c2ccc(C)cc2)c1O
cytotoxicity at 70.5 h: -2.65%

CCn1nc2nc(SCC(=O)O)cc(C(F)F)c2c1C
cytotoxicity at 70.5 h: -5.31%

CCn1cc(N)c(-c2nnc3n2CCCC3)n1
cytotoxicity at 70.5 h: -2.65%

Cn1nccc1CNC(=O)CCn1nc(C(F)(F)F)cc1C1CC1
cytotoxicity at 70.5 h: -4.88%

Cn1nccc1CNC(=O)CCn1nc(C(F)(F)F)c(Cl)c1C1CC1
cytotoxicity at 70.5 h: -3.15%

Cc1cc(C)n(NC(=O)c2ccccc2C)c(=O)c1
cytotoxicity at 70.5 h: -3.12%

Cn1ncc(NC(=O)c2noc3c2CCCC3)c1C(=O)N1CCCCC1
cytotoxicity at 70.5 h: -6.23%

COc1ccc(N(c2ccccc2)c2ccc(C(=O)O)s2)cc1
cytotoxicity at 70.5 h: -0.368%

O=C1CCC(=O)N1c1nn(Cc2c(F)cccc2Cl)cc1Cl
cytotoxicity at 70.5 h: 6.93%

CCn1ncc(-c2cc(C(F)F)n3nc(CCC(=O)O)nc3n2)c1C
cytotoxicity at 70.5 h: -1.79%

CCN(CC)C(=O)c1c(Cl)cnn1CC
cytotoxicity at 70.5 h: -0.536%

NC1C=C(C(F)(F)F)NC=C1c1ccccc1 (stereo not given)
cytotoxicity at 70.5 h: -0.126%

CC(C)c1ccc(-c2nonc2N)cc1
cytotoxicity at 70.5 h: 1.97%

CC(C)c1cc(CN2CCC(N)CC2)on1
cytotoxicity at 70.5 h: 19.4%

CC(C)c1cc(CN2CCC(CC(=O)O)CC2)no1
cytotoxicity at 70.5 h: -2.18%

CCN(CC)C(=O)c1c(Br)cnn1CC
cytotoxicity at 70.5 h: -2.09%

CC(C)(C)C(Cn1cccn1)NC(=O)c1ccco1 (stereo not given)
cytotoxicity at 70.5 h: -2.47%

O=C1CCC(=O)N1c1nn(Cc2cccc(F)c2)cc1Cl
cytotoxicity at 70.5 h: -0.348%

Cc1cc(I)c2c(c1)C(=O)C(CN1CCCC1)(CN1CCCC1)CO2
cytotoxicity at 70.5 h: -0.395%

Cc1nnc(SCc2ccccn2)s1
cytotoxicity at 70.5 h: 1.03%

Fc1ccccc1C1NCCc2cc3c(cc21)OCCO3 (stereo not given)
cytotoxicity at 70.5 h: 0.151%

Cc1cc(C)n(CNc2nonc2C(N)=O)n1
cytotoxicity at 70.5 h: 36%

O=C(CN1CCCCC1)Nc1ncc(Br)cc1Br
cytotoxicity at 70.5 h: 48.9%

O=C(O)CCc1nc2nccc(-c3ccc(F)cc3)n2n1
cytotoxicity at 70.5 h: 20.1%

Cn1cc(-c2cc(C(F)(F)F)n(CCCN)n2)cn1
cytotoxicity at 70.5 h: 20%

CCC(CCN)n1ccc(C(F)(F)F)n1 (stereo not given)
cytotoxicity at 70.5 h: 4.74%

COc1ccccc1CNc1cnn(CC(F)F)c1
cytotoxicity at 70.5 h: 1.56%

COC(=O)c1ccc(CNCc2ccn(C)n2)cc1
cytotoxicity at 70.5 h: 17.7%

O=C(O)CCc1nc2nccc(C(F)(F)F)n2n1
cytotoxicity at 70.5 h: 0.723%

O=C(O)c1cc(-c2cccs2)nc2c(Cl)cnn12
cytotoxicity at 70.5 h: -5.65%

N#Cc1cc2c(nc1SCc1cc(O)nc(O)n1)CCCC2
cytotoxicity at 70.5 h: -7.89%

COC(=O)N1CC(C)=C(C)CN1C(=O)Nc1ccc(Cl)cc1
cytotoxicity at 70.5 h: 3.18%

Cc1cc(Br)c(O)c(-c2nc(N3CCCCC3)sc2C)c1
cytotoxicity at 70.5 h: 13.1%

CCCc1c(C(=O)NC2CCCC2)nnn1-c1ccc(OC)cc1
cytotoxicity at 70.5 h: 16.8%

COc1ccc(-c2ccnc3c2C(=O)CCC3)cc1
cytotoxicity at 70.5 h: 25.7%

CC(C)c1cc(C(F)(F)F)n2nc(CCC(=O)O)nc2n1
cytotoxicity at 70.5 h: 10.3%

CCn1cc(CN(C)S(=O)(=O)c2cnn(CC)c2C)c(C)n1
cytotoxicity at 70.5 h: 5.14%

COc1ccc(Oc2cncc(C3CCCN3C(C)=O)n2)cc1 (stereo not given)
cytotoxicity at 70.5 h: 31.7%

Cc1cc2cc(C(=O)N[C@@H]3CC[C@@H](N4CCOCC4)[C@@H]3O)ccc2o1
cytotoxicity at 70.5 h: 24.8%

CNC(=O)C1(N2CCC[C@H]2C(=O)NC2CCCCC2)CCOCC1
cytotoxicity at 70.5 h: 5.4%

CCNC(=O)[C@@H]1CCCN1[C@@H](C(=O)NC)C1CC1
cytotoxicity at 70.5 h: -2.16%

CCCNC(=O)[C@@H]1CCCN1[C@@H](C(=O)NC)C1CC1
cytotoxicity at 70.5 h: -11.8%

CNC(=O)C1(N2CCC[C@H]2C(=O)NC2CCOCC2)CCOCC1
cytotoxicity at 70.5 h: -6.78%

CC(C)NC[C@@]1(COc2ccccc2)C[C@@H](O)[C@@H](O)C1
cytotoxicity at 70.5 h: -5.31%

CNC(=O)C(C)(C)N1CCC[C@H]1C(=O)NCC(C)C
cytotoxicity at 70.5 h: -6.89%

CN1CCCCc2c1nc1c(c2N)CCC1.O=C(O)c1cc([N+](=O)[O-])ccc1Cl
cytotoxicity at 70.5 h: -11.7%
